Experimental findings from US6831199B1, “Pyrimidine compounds and derivatives thereof” (G. D. Searle & Co., priority 1995, dated 2004) are described below.

pIC50: −log10 of the molar value. Where a name gives a salt, the structure may show the parent alone. A value given as a limit tells only on which side of the number the result lay.

Assay [1] has as its target T1, Human vitronectin receptor (αvβ3) (Homo sapiens, UniProt P05106+P06756).
T1 construct: Human vitronectin receptor (αvβ3) was purified from human placenta; from tissue; host or cells: human placenta
The experiment in a line: Vitronectin adhesion assay (solid phase receptor assay, competition with biotinylated vitronectin). It is filed as binding. The note with it: read-out: AvB3 IC50. In short, it runs like this: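 Purified human αvβ3 coated overnight at 4 °C in TBS with 1.0 mM Ca++, Mg++, Mn++, pH 7.4; compounds (top final 1.0×10^−4 M) competed with 1 nM biotinylated vitronectin for 2 h at room temperature. Bound ligand detected by HRP anti-biotin/OPD at A450; values normalized to no-competitor controls, four-parameter curve fit.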

For assay [2], the target named is T2, Human fibrinogen receptor (αIIbβ3) (Homo sapiens, UniProt P05106+P08514).
T2 construct: Human fibrinogen receptor (αIIbβ3) was purified from outdated platelets; from tissue; host or cells: outdated human platelets
The experiment in a line: Purified IIb/IIIa receptor assay (solid phase receptor assay, competition with biotinylated vitronectin). Type of assay: binding. As to conditions: read-out: IIb/IIIa IC50. In short, it runs like this: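 Purified platelet αIIbβ3 coated overnight at 4 °C in TBS with 1.0 mM Ca/Mg/Mn, pH 7.4, then BSA-blocked. Compounds (top 1.0×10^−4 M) competed with 1 nM biotinylated vitronectin for 2 h at room temperature. Bound label detected by HRP anti-biotin, A450; values normalized to no-competitor controls, four-parameter fit.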

Take `N=C(N)Nc1cccc(C(=O)NCC(=O)NC(CC(=O)O)c2cc(Cl)c(O)c(Cl)c2)c1` (stereo not drawn) [Example 277, β-[[2-[[[3-[(aminoiminomethyl)amino]phenyl]carbonyl]amino]acetyl]amino]-3,5-dichloro-4-hydroxybenzenepropanoic acid, trifluoroacetate salt]: the pIC50 in assay [1] is 8.85; in assay [2], 6.70.
For the molecule `N=C(N)Nc1cccc(C(=O)NCC(=O)NC(CC(=O)O)c2c(F)c(F)cc(F)c2F)c1` (racemic) [Example 365, (±)β-[[2-[[[3-[(aminoiminomethyl)amino]phenyl]carbonyl]amino]acetyl]amino]-2,3,5,6-tetrafluorobenzenepropanoic acid, trifluoroacetate salt], the pIC50 in assay [1] was 7.77; in assay [2], 5.07.
Take `N=C(N)Nc1cccc(C(=O)NCC(=O)NC(CC(=O)O)c2cc3ccccc3o2)c1` (stereo not drawn) [Example 259, β-[[2-[[[3-[(aminoiminomethyl)amino]phenyl]carbonyl]amino]acetyl]amino]benzofuran-2-propanoic acid, trifluoroacetate salt]: the figures for the pIC50 in assay [1] and in assay [2] were 9.09 and 7.06, respectively.
As for `N=C(N)Nc1cccc(C(=O)NCC(=O)NC(CC(=O)O)c2ccc(Br)cc2)c1` (racemic) [Example 187, (±)β-[[2-[[[3-[(aminoiminomethyl)amino]phenyl]carbonylamino]acetyl]amino]-4-bromobenzenepropanoic acid, trifluoroacetate salt], the pIC50 was 8.88 in assay [1] and 6.58 in assay [2].
For `CCOC(=O)/N=C(/NC(=O)OCC)Nc1cccc(C(=O)NCC(=O)NC(CC(=O)O)c2cc(Cl)cc(Cl)c2)c1` (stereo not drawn) [Example 166, 3,5-dichloro-β-[[2-[[[3-[[[(ethoxycarbonyl)amino][(ethoxycarbonyl)imino]methyl]amino]phenyl]carbonyl]amino]acetyl]amino]benzenepropanoic acid], the pIC50 was 4.89 in assay [1] and 4.34 in assay [2].
The corresponding values for `CCN/C(=N\C)Nc1cccc(C(=O)NCC(=O)NC(CC(=O)O)c2cc(Cl)cc(Cl)c2)c1` (racemic) [Example 295, (±)3,5-dichloro-β-[[2-[[[3-[[(ethylamino)(methylimino)methyl]amino]phenyl]carbonyl]amino]acetyl]amino]benzenepropanoic acid, trifluoroacetate salt] are 6.84 and 5.34.
In the same order, the values of `CCOC(=O)CC(NC(=O)CNC(=O)c1cccc(NC(=N)N)c1)c1ccoc1` (racemic) [Example 51, (±)ethyl β-[[2-[[[3-[(aminoiminomethyl)amino]phenyl]carbonyl]amino]acetyl]amino]furan-3-propanoate, trifluoroacetate salt] are 5.01 and less than 4.00.
Regarding `CCOC(=O)CC(NC(=O)CNC(=O)c1cccc(NC(=N)N)c1)c1cnc2ccccc2c1` (racemic) [Example 98, (±)ethyl β-[[2-[[[3-[(aminoiminomethyl)amino]phenyl]carbonyl]amino]acetyl]amino]-quinoline-3-propanoate, bis(trifluoroacetate)salt], the pIC50 in assay [1] was 6.84; in assay [2], 6.30.
Turning to `CCOC(=O)CC(NC(=O)CNC(=O)c1cccc(NC(=N)N)c1)c1ccc2c(c1)OCO2` (racemic) [Example 5, (±)ethyl β-[[2-[[[3-[(aminoiminomethyl)amino]phenyl]carbonyl]amino]acetyl]amino]-1,3-benzodioxole-5-propanoate, trifluoroacetate salt], the pIC50 in assay [1] is 6.64; in assay [2], 5.50.
The corresponding values for `CNC(=NC(N)=O)Nc1cccc(C(=O)NCC(=O)NC(CC(=O)O)c2cc(Cl)cc(Cl)c2)c1` (racemic) [Example 201, (±)β-[[2-[[[3-[[[(aminocarbonyl)imino)methylamino)methyl]amino]phenyl]carbonyl]amino]acetyl]amino]-3,5-dichlorobenzenepropanoic acid] are 7.24 and 4.97.
As to `Cc1ccc(C(=O)NCC(=O)NC(CC(=O)O)c2cccnc2)cc1N` (stereo not drawn) [Example 84, β-[[2-[[(3-amino-4-methylphenyl)carbonyl]amino]acetyl]amino]pyridine-3-propanoic acid, bis(trifluoroacetate)salt], the pIC50 in assay [1] is 5.55; in assay [2] it was 6.61.
In the same order, the values of `N=C(N)Nc1cccc(C(=O)NCC(=O)NC(CC(=O)O)c2ccc(Cl)s2)c1` (stereo not drawn) [251(C), β-[[2-[[[3-[(aminoiminomethyl)amino]phenyl]carbonyl]amino]acetyl]amino]-5-chlorothiophene-2-propanoic acid, trifluoroacetate salt] are 9.12 and 6.91.
The corresponding values for `CC1(C)CN=C(Nc2cccc(C(=O)NCC(=O)NC(CC(=O)O)c3cc(Cl)cc(Cl)c3O)c2)NC1` (racemic) [Example 362, (±)3,5-dichloro-2-hydroxy-β-[[2-[[[3-[(1,4,5,6-tetrahydro-5,5-dimethylpyrimidin-2-yl)amino]phenyl]carbonyl]amino]acetyl]amino]benzenepropanoic acid, trifluoroacetate salt] are 9.08 and 5.14.
For the molecule `N=C(N)Nc1cccc(C(=O)NCC(=O)NC(CC(=O)O)c2cc(Cl)cc(Cl)c2Cl)c1` (stereo not drawn) [Example 254, β-[[2-[[[3-[(aminoiminomethyl)amino]phenyl]carbonyl]amino]acetyl]amino]-2,3,5-trichlorobenzenepropanoic acid, trifluoroacetate salt], the pIC50 in assay [1] was 7.78; in assay [2], 5.16.
The corresponding values for `N=C(N)Nc1cccc(C(=O)NCC(=O)NC(CC(=O)O)c2cncnc2)c1` (stereo not drawn) [Example 243, β-[[2-[[[3-[(aminoiminomethyl)amino]phenyl]carbonyl]amino]acetyl]amino][pyrimidine-5-propanoic acid, trifluoroacetate salt] are 9.46 and 7.63.
Take `O=C(O)CC(NC(=O)CNC(=O)c1cccc(NC2=NCCCN2)c1)c1cc(Br)cc(Br)c1` (racemic) [Example 211, (±)3,5-dibromo-β-[[2-[[[3-[(1,4,5,6-tetrahydropyrimidin-2-yl)amino]phenyl]carbonyl]amino]acetyl]amino]benzenepropanoic acid, trifluoroacetate salt]: the pIC50 was 9.33 in assay [1] and 6.22 in assay [2].
In the same order, the values of `CSc1cccc(C(CC(=O)O)NC(=O)CNC(=O)c2cccc(NC(=N)N)c2)c1` (racemic) [Example 245, (±)β-[[2-[[[3-[(aminoiminomethyl)amino]phenyl]carbonyl]amino]acetyl]amino]-3-(methylthio)benzenepropanoic acid, trifluoroacetate salt] are 9.02 and 6.87.
`Cc1cccc(C(CC(=O)O)NC(=O)CNC(=O)c2cccc(NC(=N)N)c2)n1` (racemic) [Example 246, (±)β-[[2-[[[3-[(aminoiminomethyl)amino]phenyl]carbonyl]amino]acetyl]amino]-6-methylpyridine-2-propanoic acid, bis(trifluoroacetate)salt]: the pIC50 was 8.14 in assay [1] and 6.10 in assay [2].
As to `N=C(N)Nc1cccc(C(=O)NCC(=O)NC(CC(=O)O)c2ccc3c(c2)Cc2ccccc2-3)c1` (racemic) [Example 224, (±)β-[[2-[[[3-[(aminoiminomethyl)amino]phenyl]carbonyl]amino]acetyl]amino]-9H-fluorene-2-propanoic acid, trifluoroacetate salt], the figures for the pIC50 in assay [1] and in assay [2] were 9.15 and 7.59, respectively.
The corresponding values for `CCOC(=O)CC(NC(=O)CNC(=O)c1cccc(NC(N)=O)c1)c1cccnc1` (stereo not drawn) [Example 109, ethyl β-[[2-[[[3-(aminocarbonylamino]phenyl]carbonyl]amino]acetylamino]pyridine-3-propanoate, trifluoroacetate salt] are 6.24 and less than 4.00.
Regarding `N=C(N)Nc1cccc(C(=O)NCC(=O)NC(CC(=O)O)c2cc(Cl)ccc2O)c1` (racemic) [Example 231, (±)β-[[2-[[[3-[(aminoiminomethyl)amino]phenyl]carbonyl]amino]acetyl]amino]-5-chloro-2-hydroxybenzenepropanoic acid, trifluoroacetate salt, monohydrate], the pIC50 is 8.52 in assay [1] and 6.37 in assay [2].
As for `Nc1nnc(Nc2cccc(C(=O)NCC(=O)NC(CC(=O)O)c3cc(Cl)cc(Cl)c3)c2)[nH]1` (stereo not drawn) [Example 282, β-[[2-[[[3-[(5-amino-1,2,4-triazol-3-yl)amino]phenyl]carbonyl]amino]acetyl]amino]-3,5-dichlorobenzenepropanoic acid, trifluoroacetate salt], the pIC50 is 6.06 in assay [1] and 5.01 in assay [2].
In the same order, the values of `O=C(O)CC(NC(=O)CNC(=O)c1cccc(NC2=NCCCN2)c1)c1cc(Cl)cc(Br)c1O` (racemic) [Example 236, (±)3-bromo-5-chloro-2-hydroxy-β-[[2-[[[3-[(1,4,5,6-tetrahydropyrimidin-2-yl)amino]phenyl]carbonyl]amino]acetyl]amino]benzenepropanoic acid, trifluoroacetate salt, monohydrate] are 9.28 and 5.90.
Take `CS(=O)(=O)c1cccc(C(CC(=O)O)NC(=O)CNC(=O)c2cccc(NC(=N)N)c2)c1` (stereo not drawn) [Example 247, β-[[2-[[[3-[(aminoiminomethyl)amino]phenyl]carbonyl]amino]acetyl]amino]-3-(methylsulfonyl)benzenepropanoic acid, bis(trifluoroacetate)salt]: the results for the pIC50 in assay [1] and in assay [2] were 8.91 and 6.38, respectively.
